The source of these data is patent US20080307843A1, “Nitrification inhibitor and soil improver and fertilizer containing the same” (JAPAN INTERNATIONAL RESEARCH CENTER FOR AGRICULTURAL …, priority 2006, published 2008).

In data set [1] the test system is Nitrosomonas europaea IF014298 with luciferase gene (luxAB). Briefly: in-vitro nitrification bacteria test, biological luminescence accompanying nitrification reaction. Conditions: incubation at 15° C. for 30 minutes; for 80% inhibitory concentration: concentration where the nitrification inhibitory ratio became 80%.
The conditions of data set [2]: in the ordinarily used range; RTECS No. QJ5775000; cited from earlier work.

For the compound `Clc1cccc(C(Cl)(Cl)Cl)n1` [Comparative Example 14, 2-chloro-6-Trichloromethylpyridine, reference compound], the 80% inhibitory concentration in data set [1] was 4 ppm.

As for `N#CN=C(N)N` [Comparative Example 15, dicyanodiamide, reference compound], the 80% inhibitory concentration in data set [1] was 185 ppm.

In the case of `O=C1C=CC(=O)c2c(O)cccc21` [Example 1, 5-hydroxy-1,4-naphtoquinone], the 80% inhibitory concentration in data set [1] stood at 0.08 ppm. Also, in data set [1] (concentration where the nitrification-inhibitory ratio became 50%), the 50% inhibitory concentration is 0.03 ppm. Moreover, the toxicity result in data set [2] was “low toxicity”.
